Laboratory results as given in ChEMBL document CHEMBL1909294, “Translating clinical findings into knowledge in drug safety evaluation--drug induced liver injury prediction system (DILIps)” (PLoS Comput Biol, 2011).

Key:
Hepatotoxicity [1] = system: Hepatotoxicity;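 as to HepSE cirrhosis: cirrhosis hepatic side effect score taken from the DILIps (drug-induced liver injury prediction) training set; call rule not given here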;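 as to HepSE elevated liver function tests: hepatic side effect score for raised liver function tests, as recorded in the DILIps training set used for predicting drug-induced liver injury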; as to HepSE hepatic failure: call rule not given here;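 as to HepSE hepatic necrosis: score of hepatic side effects for hepatic necrosis, drawn from the training data of DILIps, a prediction system for drug-induced liver injury; call rule not given here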;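 as to HepSE hepatomegaly: hepatic side effect score for hepatomegaly, taken from the training set of the DILIps drug-induced liver injury prediction system; call rule not given here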; as to HepSE liver disease: call rule not given here;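 as to HepSE liver fatty: hepatic side effect score for fatty liver, taken from the DILIps training set for predicting drug-induced liver injury; call rule not given here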
Hepatotoxicity [2] = system: Hepatotoxicity; remark: listed apart in the source;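 as to HepSE cirrhosis: cirrhosis hepatic side effect score taken from the DILIps (drug-induced liver injury prediction) training set; call rule not given here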;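 as to HepSE elevated liver function tests: hepatic side effect score for raised liver function tests, as recorded in the DILIps training set used for predicting drug-induced liver injury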; as to HepSE hepatic failure: call rule not given here;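 as to HepSE hepatic necrosis: score of hepatic side effects for hepatic necrosis, drawn from the training data of DILIps, a prediction system for drug-induced liver injury; call rule not given here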;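 as to HepSE hepatomegaly: hepatic side effect score for hepatomegaly, taken from the training set of the DILIps drug-induced liver injury prediction system; call rule not given here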; as to HepSE liver disease: call rule not given here;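 as to HepSE liver fatty: hepatic side effect score for fatty liver, taken from the DILIps training set for predicting drug-induced liver injury; call rule not given here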
Hepatotoxicity [3] = system: Hepatotoxicity; remark: listed apart in the source;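 as to HepSE cirrhosis: cirrhosis hepatic side effect score taken from the DILIps (drug-induced liver injury prediction) training set; call rule not given here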;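 as to HepSE elevated liver function tests: hepatic side effect score for raised liver function tests, as recorded in the DILIps training set used for predicting drug-induced liver injury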; as to HepSE hepatic failure: call rule not given here;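 as to HepSE hepatic necrosis: score of hepatic side effects for hepatic necrosis, drawn from the training data of DILIps, a prediction system for drug-induced liver injury; call rule not given here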;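 as to HepSE hepatomegaly: hepatic side effect score for hepatomegaly, taken from the training set of the DILIps drug-induced liver injury prediction system; call rule not given here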;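 as to HepSE liver fatty: hepatic side effect score for fatty liver, taken from the DILIps training set for predicting drug-induced liver injury; call rule not given here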
Hepatotoxicity [4] = system: Hepatotoxicity; remark: listed apart in the source;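 as to HepSE cirrhosis: cirrhosis hepatic side effect score taken from the DILIps (drug-induced liver injury prediction) training set; call rule not given here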;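 as to HepSE elevated liver function tests: hepatic side effect score for raised liver function tests, as recorded in the DILIps training set used for predicting drug-induced liver injury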; as to HepSE hepatic failure: call rule not given here;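 as to HepSE hepatic necrosis: score of hepatic side effects for hepatic necrosis, drawn from the training data of DILIps, a prediction system for drug-induced liver injury; call rule not given here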;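 as to HepSE hepatomegaly: hepatic side effect score for hepatomegaly, taken from the training set of the DILIps drug-induced liver injury prediction system; call rule not given here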;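 as to HepSE liver fatty: hepatic side effect score for fatty liver, taken from the DILIps training set for predicting drug-induced liver injury; call rule not given here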
Hepatotoxicity [5] = system: Hepatotoxicity; remark: listed apart in the source; as to HepSE hepatic failure: call rule not given here
Hepatotoxicity [6] = system: Hepatotoxicity; remark: listed apart in the source; as to HepSE hepatic failure: call rule not given here
Hepatotoxicity [7] = system: Hepatotoxicity; remark: listed apart in the source
Hepatotoxicity [8] = system: Hepatotoxicity; remark: listed apart in the source
Hepatotoxicity [9] = system: Hepatotoxicity; remark: listed apart in the source
Hepatotoxicity [10] = system: Hepatotoxicity; remark: listed apart in the source
Hepatotoxicity [11] = system: Hepatotoxicity; remark: listed apart in the source
Hepatotoxicity [12] = system: Hepatotoxicity; remark: listed apart in the source
Hepatotoxicity [13] = system: Hepatotoxicity; remark: listed apart in the source
Hepatotoxicity [14] = system: Hepatotoxicity; remark: listed apart in the source

Row | SMILES | HepSE_cirrhosis (Hepatotoxicity [1]) | HepSE_liver fatty (Hepatotoxicity [2]) | HepSE_hepatic failure (Hepatotoxicity [3]) | HepSE_elevated liver function tests (Hepatotoxicity [4]) | HepSE_hepatic necrosis (Hepatotoxicity [5]) | HepSE_cholelithiasis (Hepatotoxicity [6]) | HepSE_hepatomegaly (Hepatotoxicity [7]) | HepSE_bilirubinemia (Hepatotoxicity [8]) | HepSE_liver disease (Hepatotoxicity [9]) | HepSE_cholecystitis (Hepatotoxicity [10]) | HepSE_liver function tests abnormal (Hepatotoxicity [11]) | HepSE_hepatitis (Hepatotoxicity [12]) | HepSE_jaundice (Hepatotoxicity [13]) | HepSE_Combined Scores (Hepatotoxicity [14]) | other results
1 | CN(C/C=C/c1ccccc1)Cc1cccc2ccccc12 [NAFTIFINE] |  |  |  |  |  |  |  |  |  |  |  |  |  |  | HepSE_cirrhosis (Hepatotoxicity [1]; Liver): 0; HepSE_liver fatty (Hepatotoxicity [2]; Liver): 0; HepSE_hepatic failure (Hepatotoxicity [3]; Liver): 0; HepSE_elevated liver function tests (Hepatotoxicity [4]; Liver): 0; HepSE_hepatic necrosis (Hepatotoxicity [5]; Liver): 0; HepSE_cholelithiasis (Hepatotoxicity [6]; Liver): 0; HepSE_hepatomegaly (Hepatotoxicity [7]; Liver): 0; HepSE_bilirubinemia (Hepatotoxicity [8]; Liver): 0; HepSE_liver disease (Hepatotoxicity [9]; Liver): 0; HepSE_cholecystitis (Hepatotoxicity [10]; Liver): 0; HepSE_liver function tests abnormal (Hepatotoxicity [11]; Liver): 0; HepSE_hepatitis (Hepatotoxicity [12]; Liver): 0; HepSE_jaundice (Hepatotoxicity [13]; Liver): 0; HepSE_Combined Scores (Hepatotoxicity [14]; Liver): 0
2 | Oc1ccc2c3c1O[C@H]1[C@@H](O)CC[C@@]4(O)[C@@H](C2)N(CC2CCC2)CC[C@]314 [NALBUPHINE] | 0 | 0 | 0 | 0 | 0 | 0 | 0 | 0 | 0 | 0 | 0 | 0 | 0 | 0 | 
3 | CCn1cc(C(=O)O)c(=O)c2ccc(C)nc21 [NALIDIXIC ACID] | 0 | 0 | 0 | 0 | 0 | 0 | 0 | 0 | 0 | 0 | 0 | 0 | 0 | 0 | 
4 | C=CCN1CC[C@]23c4c5ccc(O)c4O[C@H]2C(=O)CC[C@@]3(O)[C@H]1C5 [NALOXONE] | 0 | 0 | 0 | 0 | 0 | 0 | 0 | 0 | 0 | 0 | 0 | 0 | 0 | 0 | 
5 | O=C1CC[C@@]2(O)[C@H]3Cc4ccc(O)c5c4[C@@]2(CCN3CC2CC2)[C@H]1O5 [NALTREXONE] | 0 | 0 | 0 | 0 | 0 | 1 | 0 | 0 | 0 | 0 | 0 | 1 | 0 | 2 | 
6 | C[C@]12CC[C@H]3[C@@H](CCC4=CC(=O)CC[C@@H]43)[C@@H]1CC[C@@H]2O [NANDROLONE] | 0 | 0 | 0 | 0 | 0 | 0 | 0 | 0 | 0 | 0 | 0 | 0 | 0 | 0 | 
7 | c1ccc2c(CC3=NCCN3)cccc2c1 [NAPHAZOLINE] | 0 | 0 | 0 | 0 | 0 | 0 | 0 | 0 | 0 | 0 | 0 | 0 | 0 | 0 | 
8 | CC(C)[C@H]1CC[C@H](C(=O)N[C@H](Cc2ccccc2)C(=O)O)CC1 [NATEGLINIDE] | 0 | 0 | 0 | 0 | 0 | 0 | 0 | 0 | 1 | 0 | 0 | 1 | 1 | 3 | 
9 | OC(CNCC(O)C1CCc2cc(F)ccc2O1)C1CCc2cc(F)ccc2O1 (stereo not drawn) [NEBIVOLOL] | 0 | 0 | 0 | 0 | 0 | 0 | 0 | 0 | 0 | 0 | 0 | 0 | 0 | 0 | 
10 | CCCc1c2oc(C(=O)[O-])cc(=O)c2cc2c(=O)cc(C(=O)[O-])n(CC)c12.[Na+].[Na+] [NEDOCROMIL SODIUM] | 0 | 0 | 0 | 0 | 0 | 0 | 0 | 0 | 0 | 0 | 0 | 0 | 0 | 0 | 
11 | CCc1nn(CCCN2CCN(c3cccc(Cl)c3)CC2)c(=O)n1CCOc1ccccc1 [NEFAZODONE] | 0 | 0 | 0 | 0 | 1 | 0 | 0 | 0 | 0 | 0 | 1 | 1 | 0 | 3 | 
12 | COc1nc(N)nc2c1ncn2[C@@H]1O[C@H](CO)[C@@H](O)[C@@H]1O [NELARABINE] | 0 | 0 | 0 | 0 | 0 | 0 | 0 | 0 | 0 | 0 | 0 | 0 | 0 | 0 | 
13 | Cc1ccnc2c1NC(=O)c1cccnc1N2C1CC1 [NEVIRAPINE] | 0 | 0 | 1 | 0 | 1 | 0 | 0 | 0 | 1 | 0 | 1 | 1 | 1 | 6 | 
14 | COC(=O)C1=C(C)NC(C)=C(C(=O)OCCN(C)Cc2ccccc2)C1c1cccc([N+](=O)[O-])c1 (stereo not drawn) [NICARDIPINE] | 0 | 0 | 0 | 0 | 0 | 0 | 0 | 0 | 0 | 0 | 0 | 0 | 0 | 0 | 
15 | CN1CCC[C@H]1c1cccnc1 [NICOTINE] |  |  |  |  |  |  |  |  |  |  |  |  |  |  | HepSE_cirrhosis (Hepatotoxicity [1]; Liver): 0; HepSE_liver fatty (Hepatotoxicity [2]; Liver): 0; HepSE_hepatic failure (Hepatotoxicity [3]; Liver): 0; HepSE_elevated liver function tests (Hepatotoxicity [4]; Liver): 0; HepSE_hepatic necrosis (Hepatotoxicity [5]; Liver): 0; HepSE_cholelithiasis (Hepatotoxicity [6]; Liver): 0; HepSE_hepatomegaly (Hepatotoxicity [7]; Liver): 0; HepSE_bilirubinemia (Hepatotoxicity [8]; Liver): 0; HepSE_liver disease (Hepatotoxicity [9]; Liver): 0; HepSE_cholecystitis (Hepatotoxicity [10]; Liver): 0; HepSE_liver function tests abnormal (Hepatotoxicity [11]; Liver): 0; HepSE_hepatitis (Hepatotoxicity [12]; Liver): 0; HepSE_jaundice (Hepatotoxicity [13]; Liver): 0; HepSE_Combined Scores (Hepatotoxicity [14]; Liver): 0
16 | COC(=O)C1=C(C)NC(C)=C(C(=O)OC)C1c1ccccc1[N+](=O)[O-] [NIFEDIPINE] | 0 | 0 | 0 | 0 | 0 | 0 | 0 | 0 | 0 | 0 | 0 | 1 | 1 | 2 | 
17 | CC1(C)NC(=O)N(c2ccc([N+](=O)[O-])c(C(F)(F)F)c2)C1=O [NILUTAMIDE] |  |  |  |  |  |  |  |  |  |  |  |  |  |  | HepSE_cirrhosis (Hepatotoxicity [1]; Liver): 0; HepSE_liver fatty (Hepatotoxicity [2]; Liver): 0; HepSE_hepatic failure (Hepatotoxicity [3]; Liver): 0; HepSE_elevated liver function tests (Hepatotoxicity [4]; Liver): 0; HepSE_hepatic necrosis (Hepatotoxicity [5]; Liver): 0; HepSE_cholelithiasis (Hepatotoxicity [6]; Liver): 0; HepSE_hepatomegaly (Hepatotoxicity [7]; Liver): 0; HepSE_bilirubinemia (Hepatotoxicity [8]; Liver): 0; HepSE_liver disease (Hepatotoxicity [9]; Liver): 0; HepSE_cholecystitis (Hepatotoxicity [10]; Liver): 0; HepSE_liver function tests abnormal (Hepatotoxicity [11]; Liver): 0; HepSE_hepatitis (Hepatotoxicity [12]; Liver): 1; HepSE_jaundice (Hepatotoxicity [13]; Liver): 0; HepSE_Combined Scores (Hepatotoxicity [14]; Liver): 1
